Experimental data as given in patent publication US20260098061A1, “EPHA2-BINDING PENDING PEPTIDE AND COMPOSITION COMPRISING SAME” (PeptiDream Inc., priority 2022, published 2026).
Numbered stars: 1 amine (or outer) side, 2 acyl side, 3 side chain; on linkers, the order of the positions; unused ones are H or OH. Bridge positions count the residues as written; N and C are the ends. Square brackets hold non-standard residues; d marks the D form. Side chains are listed from the residue outwards. Peptide text beside a SMILES is read from it. * marks the point of attachment. X1 = CC(C)C[C@H](CC(=O)[C@H](CC(N)=O)N[*:1])C(=O)[*:2]; Piperazinyl(4-CH2COOH) = O=C(O)CN1CCN(*)CC1; Trp(1-Me) = Cn1cc(C[C@H](N)C(=O)O)c2ccccc21; NMe3Pal = CN[C@@H](Cc1cccnc1)C(=O)O; NMeF = CN[C@@H](Cc1ccccc1)C(=O)O; NMeE = CN[C@@H](CCC(=O)O)C(=O)O; Aad = N[C@@H](CCCC(=O)O)C(=O)O; CO = O=C([*:1])[*:2]; βAla = NCCC(=O)O

Biological target: T1, Recombinant Human EphA2 Fc Protein (Homo sapiens, UniProt P29317)
T1 construct: purchased Elabscience
Experiment: SPR interaction analysis (Biacore T200), kinetics of peptides against EphA2
Format: binding
Conditions: Recombinant Human EphA2 Fc Protein captured by Human Antibody Capture kit; single-cycle kinetics; 25° C.; HBS-P+ buffer with 1% DMSO
Protocol: Example 14 Interaction Analysis by SPR was Performed Using Biacore (Cytiva)
SPR assay was performed using Biacore T200 (Cytiva).
The HBS-P+ buffer (10 mM HEPES (pH7.4), 150 mM NaCl, 0.05% (v/V) Surfactant P20) containing 1% DMSO was used as running buffer. Recombinant Human EphA2 Fc Protein (Fc tag, Elabscience) was captured by Human Antibody Capture kit (Cytiva). Peptide samples in DMSO were diluted with running buffer, and prepared five serial dilutions. Using these serial dilutions, kinetics of peptides against EphA2 was measured at a flow rate of 30 mL/min at 25° C. The method adopted for sample measurement was a single-cycle kinetics method. The analysis was conducted using the evaluation software 3.0 provided with Biacore T200. Kinetics fitting was done on the difference data obtained by subtracting the baseline data from sample measurement data. KD values were calculated based on the association rate constant (ka) and dissociation rate constant (kd).

Row | Kd [nM] | SMILES
1 | 1 to 10 | CC(C)C[C@@H]1NC(=O)[C@H](CC(N)=O)NC(=O)[C@H](Cc2ccccc2)N(C)C(=O)[C@@H](C)NC(=O)CSC[C@@H](C(N)=O)NC(=O)[C@H](CCC(=O)O)NC(=O)[C@H]([C@@H](C)O)NC(=O)[C@H](Cc2cn(C)c3ccccc23)NC(=O)[C@H](C(C)C)NC(=O)[C@H](Cc2cn(C)c3ccccc23)NC(=O)[C@H](Cc2ccccc2)N(C)C(=O)[C@H](CCCC(=O)O)NC1=O [PDC_EphA2-00001417, da-MeF-N-L-Hgl-MeF-W1Me-V-W1Me-T-E-C-NH2] ({CH2CO}-[dA][NMeF]NL[Aad][NMeF][Trp(1-Me)]V[Trp(1-Me)]TEC-NH2; thioether N-12)
2 | < 1 | CC(=O)NCCCC[C@@H](NC(=O)CCNC(=O)[C@@H]1CSCC(=O)N[C@H](C)C(=O)N(C)[C@@H](Cc2ccccc2)C(=O)N[C@@H](CC(N)=O)C(=O)N[C@@H](CC(C)C)C(=O)N[C@@H](CCCC(=O)O)C(=O)N(C)[C@@H](Cc2ccccc2)C(=O)N[C@@H](Cc2cn(C)c3ccccc23)C(=O)N[C@@H](C(C)C)C(=O)N[C@@H](Cc2cn(C)c3ccccc23)C(=O)N[C@@H]([C@@H](C)O)C(=O)N[C@@H](CCC(=O)O)C(=O)N1)C(N)=O [PDC_EphA2-00008082, da-MeF-N-L-Hgl-MeF-W1Me-V-W1Me-T-E-C-bA-dkAc-NH2] ({CH2CO}-[dA][NMeF]NL[Aad][NMeF][Trp(1-Me)]V[Trp(1-Me)]TEC[βAla][dK](Ac)-NH2; thioether N-12)
3 | 1 to 10 | CC(=O)NCCCC[C@@H](NC(=O)CCNC(=O)[C@@H]1CSCC(=O)N[C@H](CCCCNC(=O)N2CCN(CC(=O)O)CC2)C(=O)N(C)[C@@H](Cc2cccnc2)C(=O)N[C@@H](CC(N)=O)C(=O)N[C@@H](CC(C)C)C(=O)N[C@@H](CCCC(=O)O)C(=O)N(C)[C@@H](Cc2ccccc2)C(=O)N[C@@H](Cc2cn(C)c3ccccc23)C(=O)N[C@@H](C(C)C)C(=O)N[C@@H](Cc2cn(C)c3ccccc23)C(=O)N[C@@H]([C@@H](C)O)C(=O)N[C@@H](CCC(=O)O)C(=O)N1)C(N)=O [PDC_EphA2-00008084, dkCOpipzaa-Me3Py-N-L-Hgl-MeF-W1Me-V-W1Me-T-E-C-bA-dkAc-NH2] ({CH2CO}-[dK]([CO-Piperazinyl(4-CH2COOH)])[NMe3Pal]NL[Aad][NMeF][Trp(1-Me)]V[Trp(1-Me)]TEC[βAla][dK](Ac)-NH2; thioether N-12)

The next lines start with the compound.

Row | SMILES | Kd [nM]
4 | CC(=O)NCCCC[C@@H](NC(=O)CCNC(=O)[C@@H]1CSCC(=O)N[C@H](C)C(=O)N(C)[C@@H](Cc2cccnc2)C(=O)N[C@@H](CC(N)=O)C(=O)N[C@@H](CC(C)C)C(=O)N[C@@H](CCCC(N)=O)C(=O)N(C)[C@@H](CCC(=O)O)C(=O)N[C@@H](Cc2cn(C)c3ccccc23)C(=O)N[C@@H](CCCCNC(=O)N2CCN(CC(=O)O)CC2)C(=O)N[C@@H](Cc2cn(C)c3ccccc23)C(=O)N[C@@H]([C@@H](C)O)C(=O)N[C@@H](CCCC(N)=O)C(=O)N1)C(N)=O [PDC_EphA2-00007196, da-Me3Py-N-L-Hgn-MeE-W1Me-KCOpipzaa-W1Me-T-Hgn-C-bA-dkAc-NH2] ({CH2CO}-[dA][NMe3Pal]NL[Aad](NH2)[NMeE][Trp(1-Me)]K([CO-Piperazinyl(4-CH2COOH)])[Trp(1-Me)]T[Aad](NH2)C[βAla][dK](Ac)-NH2; thioether N-12) | < 1
5 | CC(=O)NCCCC[C@@H](NC(=O)CCNC(=O)[C@@H]1CSCC(=O)N[C@H](C)C(=O)N(C)[C@@H](Cc2cccnc2)C(=O)N[C@@H](CC(N)=O)C(=O)C[C@@H](CC(C)C)C(=O)N[C@@H](CCCC(=O)O)C(=O)N(C)[C@@H](Cc2ccccc2)C(=O)N[C@@H](Cc2cn(C)c3ccccc23)C(=O)N[C@@H](C(C)C)C(=O)N[C@@H](Cc2cn(C)c3ccccc23)C(=O)N[C@@H]([C@@H](C)O)C(=O)N[C@@H](CCC(=O)O)C(=O)N1)C(N)=O [PDC_EphA2-00008083, da-Me3Py-N-L-Hgl-MeF-W1Me-V-W1Me-T-E-C-bA-dkAc-NH2] ({CH2CO}-[dA][NMe3Pal][X1][Aad][NMeF][Trp(1-Me)]V[Trp(1-Me)]TEC[βAla][dK](Ac)-NH2; thioether N-11) | < 1
